Data reported in patent US20230257429A1, “PEPTIDE ADJUVANT FOR ITS THERAPEUTIC APPLICATIONS IN VIRAL AND TUMOUR VACCINE DEVELOPMENT AND CANCER IMMUNOTHERAPY AND AUTOIMMUNE DISEASE DIAGNOSIS AND TREATMENTS” (National University of Singapore, priority 2020, published 2023).
“Also recorded” adds a separate entry of the source. Values belong to the molecule of their own block, whether it stands above or below them.

Key:
PBMC [1] = experiment: Peptide binding to and penetration of PBMC, flow cytometry; format: cell-based, human; settings: for CPP activity compared with P2+G / CPP activity compared with NCL-P2: PBMC; for CPP activity compared with P2+G: 1 hr at 4° C. and 37° C., MFI; for CPP activity compared with NCL-P2: peptide 200 μg/ml; for CPP activity compared with NCL-P2 / intracellular pool / cell penetration (CPP activity) in PBMC: 1 hr at 4° C.; for intracellular pool / cell penetration (CPP activity) in PBMC: fixed/permeabilized, streptavidin-AF488
Method: PBMC re-suspended in 100 μl macrophage serum free media (3×10^6/ml) were incubated with different peptides (200 μg/ml). PBMC (100 μl) were incubated with the peptides for 1 hr at 37° C. or 4° C. Cells were washed twice in 2% FBS/PBS and incubated with streptavidin-AF488 and Zombie (NIR) Fixable viability stain-APC-Cy7 for 30 min at 4° C. Cells were then fixed with 1% PFA for 30 min at room temperature and analysed using the Fortessa analyser (BD). In some experiments, PBMC were, after incubation with peptides, incubated with Zombie (NIR) Fixable viability stain (APC-Cy7) for 30 min at 4° C. Cells were then fixed and permeabilized with BD CYTOFIX/CYTOPERM™ Kit for 20 min at 4° C., and then incubated with streptavidin-AF488 for 30 min at 4° C. In some experiments, PBMC were, after incubation with the peptides, stained with fluorescent mouse antibodies specific for monocytes (CD14/BV711), T cells (CD3/PerCP-Cy5-5) and B cells (CD19/Pacific blue). Cells were then stained with Zombie (NIR) Fixable viability stain-APC-Cy7 and streptavin-AF488, with or without membrane permeabilization. In these experiments, monocytes, T cells and B cells were separately gated to detect surface peptide binding and intracellular peptide penetration.

PBMC [2] = experiment: PBMC activation, TNFα and IL-1β ELISA; format: cell-based, human; settings: for adjuvant (alarmin) activity compared with NCL-P2+G / adjuvant (alarmin) activity compared with NCL-P2: PBMC stimulated 24 hr; for adjuvant (alarmin) activity compared with NCL-P2+G: TNFα by ELISA; for adjuvant (alarmin) activity compared with NCL-P2: TNFα in media; for TNFα induction from PBMC by known CPPs / TNFα production from PBMC: 24 hr; for TNFα induction from PBMC by known CPPs: ELISA; for TNFα production from PBMC: recombinant protein coated on plates
Method: (§1) Buffy coat fractions were obtained from healthy blood donors at the Singapore Health Sciences Authority, with Institutional ethics approval, and PBMC were isolated using Ficoll-Paque (GE Healthcare). To isolate monocytes, PBMC were re-suspended to 1×10^7 cells/ml in the RPMI medium contained 5% (v/v) BCS and incubated for 1 hr in T75 flasks (20 ml/flask). Monocytes that adhered were harvested. To culture macrophages and DC [Cao, W., et al., Blood 107: 2777-2785, (2006), incorporated herein by reference], monocytes were resuspended to 1×10^6 cells/ml and cultured in 6-well plates (2 ml/well). Macrophages were cultured by adding M-CSF to 20 ng/ml and DC were cultured with 20 ng/ml GM-CSF and 40 ng/ml IL-4. M-CSF, GM-CSF and IL-4 were obtained from R&D Systems (Mineapolis, Minn.). Cells were cultured for 6 days with half of the media being replenished every two days.
Purified proteins in PBS (30 μg/ml) were coated in triplicates in 96-well plates (50 μl/well) for 12 hr and PBMC (3×10^6 cells/ml), monocytes (1×10^6 cells/ml), macrophages (0.5×10^6 cells/ml) or DC (0.5×10^6 cells/ml) were re-suspended in macrophage serum-free medium containing penicillin and streptomycin and cultured for 24 hr in these plates at 100 μl/well. Where TLR ligands were used to stimulate these cells, they were added to the media: LPS (500 ng/ml for DC and macrophages and 10 ng/ml for PMBC and monocytes, InvivoGen), flagellin (1 μg/ml, InvivoGen), lipoteichic acid (LTA, 10 μg/ml). Cell activation was determined by measuring TNFα and IL-1β in the culture media using ELISA kits (Invitrogen).

TLR2 = TLR2 (Homo sapiens, UniProt O60603); experiment: TLR2 binding assay (ELISA plate); parameters: purchased R&D Systems; settings: for soluble protein binding to coated TLR2: TLR2 coated 2 μg/ml, protein 0-20 μg/ml, anti-HA detection; for TLR2 binding at the highest concentration tested: peptide 200 μg/ml
monocytes = experiment: Monocyte activation, TNFα and IL-1β ELISA; format: cell-based, human; settings: protein coated on plates, 24 hr, ELISA
Method: as §1
[…] Where TLR ligands were used to stimulate these cells, they were added to the media: LPS (500 ng/ml for DC and macrophages and 10 ng/ml for PMBC and monocytes, InvivoGen), flagellin (1 μg/ml, InvivoGen), lipoteichic acid (LTA, 10 μg/ml). Cell activation was determined by measuring TNFα and IL-1β in the culture media using ELISA kits (Invitrogen).

Sequence of TLR2 (O60603 21-590 limits assumed): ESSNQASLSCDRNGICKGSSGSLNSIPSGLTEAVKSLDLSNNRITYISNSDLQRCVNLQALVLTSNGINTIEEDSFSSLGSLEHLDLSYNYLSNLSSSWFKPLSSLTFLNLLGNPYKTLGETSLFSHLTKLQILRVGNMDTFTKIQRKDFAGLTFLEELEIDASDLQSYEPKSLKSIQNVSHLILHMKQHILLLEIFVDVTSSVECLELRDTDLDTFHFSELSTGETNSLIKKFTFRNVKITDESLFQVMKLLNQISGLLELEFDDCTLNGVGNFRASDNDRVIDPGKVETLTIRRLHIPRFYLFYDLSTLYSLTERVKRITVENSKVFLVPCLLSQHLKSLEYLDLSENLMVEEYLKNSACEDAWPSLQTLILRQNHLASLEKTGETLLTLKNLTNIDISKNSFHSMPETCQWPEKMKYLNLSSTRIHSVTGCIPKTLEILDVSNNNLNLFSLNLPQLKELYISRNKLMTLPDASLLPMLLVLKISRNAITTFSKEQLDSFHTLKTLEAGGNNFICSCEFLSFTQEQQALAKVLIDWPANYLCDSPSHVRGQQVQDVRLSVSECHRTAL

Molecule: GGFGARGGARGARGGFGARGARGGFGARGGFRGARGA (NCL-P2+G(G/A))
- CPP activity compared with P2+G (PBMC [1]): completely lost the CPP activity
- adjuvant (alarmin) activity compared with NCL-P2+G (PBMC [2]): lost the alarmin activity

Molecule: GGFGGKGGGKGGKGGFGGKGKGGFGGKGGFKGGKGG (NCL-P2R/K)
- CPP activity compared with NCL-P2 (PBMC [1]): lost CPP as well as alarmin activity
- PBMC penetration at 37° C. or 4° C. (PBMC [1]; compared with NCL-P2): no longer penetrates PBMC
- adjuvant (alarmin) activity compared with NCL-P2 (PBMC [2]): lost CPP as well as alarmin activity
- adjuvant (alarmin) activity compared with NCL-P2 (PBMC [2]; listed as R/K mutant of NCL-P2): lost its adjuvant activity
- adjuvant (alarmin) activity compared with NCL-P2 (PBMC [2]; listed as SEQ ID NO: 20): completely abolished its adjuvant activity

Molecule: GGFGGRGGGRGGRGGFGGRGGRGGFGGRGGFGGRGGRGG (NCL-P2+3G)
- CPP activity compared with NCL-P2 (PBMC [1]): slightly higher CPP activity
- CPP activity compared with NCL-P2 (PBMC [1]; listed as P2+3G): slightly increased their CPP activities
- adjuvant (alarmin) activity compared with NCL-P2+G (PBMC [2]): no further improvement in adjuvant activity and instead it slightly reduced the high adjuvant activity
- adjuvant (alarmin) activity compared with NCL-P2 (PBMC [2]): significantly higher alarmin activity

Molecule: GGFGGRGGRGGFGGRGGRGGFGGRGGRGGFGGRGGRGG (NCL-P2+2G)
- adjuvant (alarmin) activity compared with NCL-P2 (PBMC [2]): diminished rather than increased adjuvant activity; also recorded: slightly reduced alarmin activity

Molecule: GGFGPRGGPRGPRGGFGPRGPRGGFGPRGGFRGPRGP (NCL-P2+G(G/P))
- CPP activity compared with P2+G (PBMC [1]): completely lost the CPP activity
- adjuvant (alarmin) activity compared with NCL-P2+G (PBMC [2]): lost the alarmin activity

Molecule: GGIGGRGGGRGGRGGIGGRGGRGGIGGRGGIRGGRGG (NCL-P2+G(F/I))
- CPP activity compared with P2+G (PBMC [1]): acquired higher CPP activities
- CPP activity compared with NCL-P2 (PBMC [1]): slightly increased their CPP activities
- adjuvant (alarmin) activity compared with NCL-P2+G (PBMC [2]): retained the alarmin activity

Molecule: GGLGGRGGGRGGRGGLGGRGGRGGLGGRGGLRGGRGG (GGLGRRGGGRGGRGGLGGRGGRGGLGGRGGLRGGRGG; NCL-P2+G(F/L))
- CPP activity compared with P2+G (PBMC [1]): acquired higher CPP activities
- CPP activity compared with NCL-P2 (PBMC [1]): slightly increased their CPP activities
- adjuvant (alarmin) activity compared with NCL-P2+G (PBMC [2]): stronger alarmin activity than P2+G; also recorded: retained the alarmin activity

Molecule: GGRGGRGGGRGGRGGRGGRGRGGRGGRGGRRGGRGG (NCL-P2F/R)
- increase in CPP activity compared with NCL-P2 (PBMC [1]): approx. 8 fold
- CPP activity compared with NCL-P2 (PBMC [1]): gained substantial CPP activity; also recorded: have cell-penetrating activity
- CPP activity compared with NCL-P2 (PBMC [1]; listed as P2F/R): strong CPP
- adjuvant (alarmin) activity compared with NCL-P2 (PBMC [2]): losing significant alarmin activity; also recorded: no significant alarmin activity
- adjuvant (alarmin) activity compared with NCL-P2 (PBMC [2]; listed as P2F/R): reduced alarmin activity; also recorded: diminished alarmin activities
- adjuvant (alarmin) activity compared with NCL-P2 (PBMC [2]; listed as SEQ ID NO: 21): substantially reduced its adjuvant activity

Molecule: GGWGGRGGGRGGRGGWGGRGRGGWGGRGGWRGGRGG (NCL-P2F/W)
- CPP activity compared with NCL-P2 (PBMC [1]): retained the CPP activity; also recorded: have cell-penetrating activity
- adjuvant (alarmin) activity compared with NCL-P2 (PBMC [2]): lost the alarmin activity; also recorded: no significant alarmin activity
- adjuvant (alarmin) activity compared with NCL-P2 (PBMC [2]; listed as SEQ ID NO: 24): markedly diminished its adjuvant activity

Molecule: GGYGGRGGGRGGRGGYGGRGRGGYGGRGGYRGGRGG (NCL-P2F/Y)
- CPP activity compared with NCL-P2 (PBMC [1]): gained significant CPP activity; also recorded: have cell-penetrating activity
- adjuvant (alarmin) activity compared with NCL-P2 (PBMC [2]): alarmin activity was diminished; also recorded: no significant alarmin activity
- adjuvant (alarmin) activity compared with NCL-P2 (PBMC [2]; listed as SEQ ID NO: 23): markedly diminished its adjuvant activity

Molecule: GWTLNSAGYLLGKINLKALAALAKKIL [CPP6, reference compound]
- TNFα induction from PBMC by known CPPs (PBMC [2]): No significant TNFα

Molecule: MVTVLFRRLRIRRACGPPRVRV (CPP7) [reference compound]
- TNFα induction from PBMC by known CPPs (PBMC [2]): No significant TNFα

- soluble protein binding to coated TLR2 (TLR2): not observed
Molecule: NCL(522)-HA: NCL-HA C-terminal deletion mutant of 522 residues which lacks the GAR/RGG region

- soluble protein binding to coated TLR2 (TLR2): not observed
- His-tagged TLR2 binding to coated protein (TLR2; protein coated 10 μg/ml, TLR2 0.375-6.0 μg/ml): no binding
Molecule: NCL(649)-HA: NCL-HA C-terminal deletion mutant which lacks the GAR/RGG region

- TLR2 binding to coated NCL-HA mutants (summary experiment) (TLR2; protein coated 10 μg/ml, TLR2 2 μg/ml): weak binding
Molecule: NCL(670)-HA: NCL-HA C-terminal deletion mutant of 670 residues with a residual GAR/RGG region
- TNFα and IL-1β production from monocytes (monocytes): no longer stimulates monocytes; also recorded: apparently insufficient

Molecule: NCL-P4: peptide representing the N-terminal half of NCL-P6 (RGGFGGRGGG; NCL-P4)
- TLR2 binding at the highest concentration tested (TLR2): no TLR2 binding
- intracellular pool / cell penetration (CPP activity) in PBMC (PBMC [1]): all lacked cell penetration

Molecule: NCL-P5: peptide representing the C-terminal half of NCL-P6 (RGGRGGFGGRG; NCL-P5)
- TLR2 binding at the highest concentration tested (TLR2): low level of TLR2 binding
- intracellular pool / cell penetration (CPP activity) in PBMC (PBMC [1]): all lacked cell penetration

Molecule: NCL-P7: short peptide corresponding to the non-repetitive C-terminal end of the 48-residue GAR/RGG region (FRGGRGG; NCL-P7)
- intracellular pool / cell penetration (CPP activity) in PBMC (PBMC [1]): all lacked cell penetration

Molecule: RRRRNRTRRNRRRVRRRRRNRTRRNRRRVR (2xCPP4) [2×CPP4, reference compound]
- alarmin activity compared with CPP4 (PBMC [2]; PBMC 24 hr, TNFα ELISA): Little increase in alarmin activity

B1: GAR1-HA: recombinant GAR1 with a C-terminal HA tag (protein, UniProt Q9NY12 1-217, looked up)
H/ACA ribonucleoprotein …: MSFRGGGRGGFNRGGGGGGFNRGGSSNHFRGGGGGGGGGNFRGGGRGGFGRGGGRGGFNKGQDQGPPERVVLLGEFLHPCEDDIVCKCTTDENKVPYFNAPVYLENKEQIGKVDEIFGQLRDFYFSVKLSENMKASSFKKLQKFYIDPYKLLPLQRFLPRPPGEKGPPRGGGRGGRGGGRGGGGRGGGRGGGFRGGRGGGGGGFRGGRGGGFRGRGH
modifications: C-terminal HA tag
- TNFα production from PBMC (PBMC [2]): indeed activated PBMC

B2: FBRL: recombinant fibrillarin with C-terminal HA tag (protein)
chain: MKPGFSPRGGGFGGRGGFGDRGGRGGRGGFGGGRGRGGGFRGRGRGGGGGGGGGGGGGRGGGGFHSGGNRGRGRGGKRGNQSGKNVMVEPHRHEGVFICRGKEDALVTKNLVPGESVYGEKRVSISEGDDKIEYRAWNPFRSKLAAAILGGVDQIHIKPGAKVLYLGAASGTTVSHVSDIVGPDGLVYAVEFSHRSGRDLINLAKKRTNIIPVIEDARHPHKYRMLIAMVDVIFADVAQPDQTRIVALNAHTFLRNGGHFVISIKANCIDSTASAEAVFASEVKKMQQENMKPQEQLTLEPYERDHAVVVGVYRPPPKVKN
modifications: C-terminal HA tag; FBRL
- TNFα production from PBMC (PBMC [2]): strongly induced TNFα production
